Target: tau (Homo sapiens, UniProt P10636)
Experiment: MCE Phenols Library screening, tau biosensor cell seeding assay (AvZ)
Format: cell-based
Settings: for Z repl 1 / Z Repl 2: Z score; for Z repl 1 / raw data 1: replicate 1; for Z Repl 2 / raw data 2: replicate 2; for AvZ (average z score of seeding, SDs from the mean level of seeding): 10 μM phenol in cell cultures, AD brain homogenate preincubated 16 hours, two biological replicates, positive = catalyzes seeding, negative = inhibits
[1] = average Z score of two replicates, Phenols Library screen
[2] = average Z score of the two replicates, MCE Phenols Library screen
[3] = average puncta of the two replicates
[4] = average Z score of the two replicates, tau biosensor seeding, MCE Phenols Library screen

Sequence of tau (P10636 623-695 limits assumed): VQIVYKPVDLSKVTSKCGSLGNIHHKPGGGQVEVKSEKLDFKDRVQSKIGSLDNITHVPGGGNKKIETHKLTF

Z repl 1	Z Repl 2	raw data 1 (puncta)	raw data 2 (puncta)	AvZ (average z score of seeding, SDs from the mean level of seeding)	av Z [2]	av puncta [3]	raw data 1 (raw puncta)	raw data 2 (raw puncta)	av Z (average Z score of the two replicates, tau seeding)	Molecule	av Z [1]	av puncta (average of raw data 1 and 2)	av Z [4]
-0.244	0.385	23421.7	16873.8	0.07						NCCc1ccc(O)cc1 [Tyramine]		20147.8	
-0.193	0.294	24027	15904.1	0.05						OCCc1ccc(O)cc1 [Tyrosol]		19965.6	
-0.755	-0.316	17290	9394.79		-0.535	13342.4				O=c1oc2cc(O)ccc2c2cc(O)c(O)cc12 [Urolithin C]			
0.198	-0.736			-0.269		16813.8	28727.3	4900.36		COc1cc(CO)ccc1O [Vanillyl alcohol]			
0.039	-0.742			-0.352		15824.3	26811.5	4837.1		COc1cc(CC(=O)C(=O)O)ccc1O [Vanilpyruvic acid]			
-0.258	-1.055	23255.9	1501.28		-0.656	12378.6				C[C@@H]1O[C@@H](O[C@@H]2[C@@H](O)[C@H](OCCc3ccc(O)c(O)c3)O[C@H](CO)[C@H]2OC(=O)/C=C/c2ccc(O)c(O)c2)[C@H](O)[C@H](O)[C@H]1O [Verbascoside]			
0.022	-0.802				-0.39	15407.7	26610.5	4204.9		O=c1cc(-c2ccc(O)cc2)oc2c([C@@H]3O[C@H](CO)[C@@H](O)[C@H](O)[C@H]3O)c(O)c([C@@H]3OC[C@@H](O)[C@H](O)[C@H]3O)c(O)c12 [Vicenin-1]			
0.632	-0.232	33940.8	10285.2						0.2	O=c1cc(-c2ccc(O)cc2)oc2c([C@@H]3O[C@H](CO)[C@@H](O[C@@H]4O[C@H](CO)[C@@H](O)[C@H](O)[C@H]4O)[C@H](O)[C@H]3O)c(O)cc(O)c12 [Vitexin-4''-O-glucoside]		22113	
-0.852	-1.136	16120.2	631.756		-0.994					COc1cc(O)c2c(c1)oc(=O)c1c3cc(O)c(O)cc3oc21 [Wedelolactone]		8376	
0.851	1.113	36560.6	24654.2							COc1c(O)cc(O)c2c(=O)cc(-c3ccccc3)oc12 [Wogonin]		30607.4	0.982
-0.039	-0.756				-0.398	15284.9	25879	4690.87		COc1c(O[C@@H]2O[C@H](C(=O)O)[C@@H](O)[C@H](O)[C@H]2O)cc(O)c2c(=O)cc(-c3ccccc3)oc12 [Wogonoside]			
-0.889	-0.335	15671.6	9188.09		-0.612	12429.8				COc1ccc(-c2oc3c(CCC(C)(C)O)c(O)cc(O)c3c(=O)c2O)cc1 [Wushanicaritin]			
0.422	0.877	31416.6	22131.8	0.65						COc1cc(O)c(C(C)=O)c(OC)c1 [Xanthoxylin]		26774.2	
0.385	0.874	30973.3	22095.4							CCCCC[C@H](O)CC(=O)CCc1ccc(O)c(OC)c1 [[6]-Gingerol]		26534.4	
-0.527	-0.802	20022.1	4200.38	-0.665		12111.2				CCCCCCC/C=C/C(=O)CCc1ccc(O)c(OC)c1 [[8]-Shogaol]			
-0.951	-0.064	14936.2	12081.7			13509				CCCCCCCCC/C=C/C(=O)CCc1ccc(O)c(OC)c1 [[10]-Shogaol]			
-0.244	-0.19				-0.217	17083.5	23425.5	10741.6		COc1cc2oc3cc(O)c(OC)c(CC=C(C)C)c3c(=O)c2c(O)c1CC=C(C)C [beta-Mangostin]			
-0.724	0.15			-0.287		16011.2	17659.3	14363.1		O=C(O)C=Cc1ccc(O)cc1 [p-Coumaric acid]			
0.77	1.484	35598.4	28613.9	1.127						O=C(O)C(O)c1ccc(O)cc1 (stereo not drawn) [p-Hydroxymandelic acid]		32106.2	
-0.181	-0.689				-0.435	14787.4	24170.2	5404.62		Corylin			
-0.874	-0.481	15857.3	7628.39		-0.677					Gigantol			

Molecule	Z repl 1	Z Repl 2	raw data 1 (puncta)	raw data 2 (puncta)	AvZ (average z score of seeding, SDs from the mean level of seeding)	av Z [2]	av puncta [3]	raw data 1 (raw puncta)	raw data 2 (raw puncta)	av Z (average Z score of the two replicates, tau seeding)	av Z [1]	av puncta (average of raw data 1 and 2)	av Z [4]
COc1cc(-c2oc3cc(O)cc(O)c3c(=O)c2O[C@@H]2O[C@H](CO[C@@H]3O[C@@H](C)[C@H](O)[C@@H](O)[C@H]3O)[C@@H](O)[C@H](O)[C@H]2O[C@@H]2O[C@@H](C)[C@H](O)[C@@H](O)[C@H]2O)ccc1O [Typhaneoside]	-0.172	-0.068	24283.7	12042.9							-0.12	18163.3	
O=c1ccc2ccc(O)cc2o1 [Umbelliferone]	-1.269	-0.533	11115.4	7074.65		-0.901						9095.02	
CC(=O)c1c(O)c(C)c(O)c2c1OC1=CC(=O)C(C(C)=O)C(=O)C12C (stereo not drawn) [Usnic acid]	1.459	0.735	43858.6	20618.4								32238.5	1.097
C[C@@H]1O[C@@H](Oc2cc(O)c3c(=O)c(O)c(-c4ccc(O)c(O)c4)oc3c2)[C@H](O)[C@H](O)[C@H]1O [Vincetoxicoside B]	-0.893	-0.479	15632.1	7653.58		-0.686	11642.8						
C[C@@H]1O[C@@H](O[C@@H]2[C@@H](O)[C@H](O)[C@@H](CO)O[C@H]2c2c(O)cc(O)c3c(=O)cc(-c4ccc(O)cc4)oc23)[C@H](O)[C@H](O)[C@H]1O [Vitexin-2"-O-rhamnoside]	0.246	-0.753				-0.253	17015.1	29301.6	4728.59				
O=C(O)c1cc(O)c2cccc(O)c2n1 [Xanthurenic acid]	0.734	1.586	35156.1	29703.1								32429.6	1.16
C[C@H]1CCCC(=O)CCCCCc2cc(O)cc(O)c2C(=O)O1 [Zearalanone]	0.089	-0.477	27422.4	7675.78							-0.194	17549.1	
C[C@H]1CCCC(=O)CCC/C=C/c2cc(O)cc(O)c2C(=O)O1 [Zearalenone]	-0.335	0.423	22326	17279.6							0.044	19802.8	
(+)-Usnic acid	0.232	-0.478	29133.2	7663.33							-0.123	18398.3	
Alpinetin	-0.059	-0.789				-0.424	14986.7	25635	4338.39				
Bavachinin	0.618	-0.383	33763.9	8675.17							0.117	21219.6	
Echinacoside	0.125	-0.609				-0.242	17056.9	27847.2	6266.63				
Engeletin	-1.222	-0.399	11684.3	8500.41		-0.81						10092.3	
Isoliquiritin apioside	0.567	-0.451	33153.4	7948.29							0.058	20550.8	
Liquiritin apioside	0.133	-0.022	27949.8	12528.3							0.056	20239.1	

Source: paper PMC11784839, “Monoaminergic neurotransmitters are bimodal effectors of tau aggregation” (Science Advances, 2025)
